{"source": "patent US20240139211A1", "about": "“METHODS AND COMPOSITIONS FOR TREATING AMYOTROPHIC LATERAL SCLEROSIS” (Amylyx Pharmaceuticals, Inc., priority 2022, published 2024)", "key": {"[1]": {"tested_on": "human hepatocytes", "conditions": "72 h, 100 μM", "protocol": "Plateable and inducible cryopreserved human hepatocytes were thawed and isolated in human hepatocyte thawing medium. […] After attachment (4 hours), the medium was changed to fresh hepatocyte culture medium for overnight cell recovery. […] A positive control (100 μM chlorpromazine) was treated in parallel."}, "[2]": {"molecular_target": "T1, CYP2C9 (Homo sapiens, UniProt P11712)", "T1 sequence (P11712 whole entry)": "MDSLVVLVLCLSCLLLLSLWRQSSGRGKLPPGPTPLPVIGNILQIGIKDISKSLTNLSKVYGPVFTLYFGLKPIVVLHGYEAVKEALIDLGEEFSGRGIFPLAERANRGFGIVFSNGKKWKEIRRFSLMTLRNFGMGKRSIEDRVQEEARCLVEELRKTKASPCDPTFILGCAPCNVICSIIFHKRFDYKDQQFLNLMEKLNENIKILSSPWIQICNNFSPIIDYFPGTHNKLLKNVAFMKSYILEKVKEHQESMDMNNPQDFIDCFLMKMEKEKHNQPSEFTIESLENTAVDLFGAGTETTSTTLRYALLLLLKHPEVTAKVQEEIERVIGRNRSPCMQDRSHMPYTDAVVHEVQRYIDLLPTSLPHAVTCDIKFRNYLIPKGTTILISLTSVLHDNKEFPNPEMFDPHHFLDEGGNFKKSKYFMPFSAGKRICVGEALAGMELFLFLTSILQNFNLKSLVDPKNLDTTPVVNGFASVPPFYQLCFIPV", "conditions": "4 μM, pH 7.4"}, "[3]": {"molecular_target": "hrCYP2C9 (Homo sapiens, UniProt P11712)", "sequence (P11712 whole entry)": "as above", "conditions": "20 min, 6 μM, pH 7.4"}, "[4]": {"molecular_target": "hrCYP3A4 (Homo sapiens, UniProt P08684)", "sequence (P08684 whole entry)": "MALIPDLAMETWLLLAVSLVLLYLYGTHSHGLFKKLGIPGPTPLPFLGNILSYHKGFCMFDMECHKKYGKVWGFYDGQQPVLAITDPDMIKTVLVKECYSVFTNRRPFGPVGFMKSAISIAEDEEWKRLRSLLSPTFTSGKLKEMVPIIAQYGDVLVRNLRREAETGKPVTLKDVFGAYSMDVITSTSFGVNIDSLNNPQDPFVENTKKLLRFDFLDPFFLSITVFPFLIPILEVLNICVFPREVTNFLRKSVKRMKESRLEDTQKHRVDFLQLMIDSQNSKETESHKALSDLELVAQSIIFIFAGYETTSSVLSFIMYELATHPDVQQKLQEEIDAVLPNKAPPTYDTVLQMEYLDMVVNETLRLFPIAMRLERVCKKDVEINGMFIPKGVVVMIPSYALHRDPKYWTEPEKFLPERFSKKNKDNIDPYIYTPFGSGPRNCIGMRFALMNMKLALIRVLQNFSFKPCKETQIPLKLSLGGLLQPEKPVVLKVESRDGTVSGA", "test": "Formation of CYP probe metabolite by hrCYP3A4", "format": "in vitro ADME", "conditions": "hrCYP3A4 vs Negative Control, QC criterion ≥2"}, "[5]": {"molecular_target": "T1, CYP2C9", "test": "Inhibition of CYP2C9 in human liver microsomes", "conditions": "pH 7.4"}, "[6]": {"molecular_target": "T2, CYP2B6 (Homo sapiens, UniProt P20813)", "T2 sequence (P20813 1-491)": "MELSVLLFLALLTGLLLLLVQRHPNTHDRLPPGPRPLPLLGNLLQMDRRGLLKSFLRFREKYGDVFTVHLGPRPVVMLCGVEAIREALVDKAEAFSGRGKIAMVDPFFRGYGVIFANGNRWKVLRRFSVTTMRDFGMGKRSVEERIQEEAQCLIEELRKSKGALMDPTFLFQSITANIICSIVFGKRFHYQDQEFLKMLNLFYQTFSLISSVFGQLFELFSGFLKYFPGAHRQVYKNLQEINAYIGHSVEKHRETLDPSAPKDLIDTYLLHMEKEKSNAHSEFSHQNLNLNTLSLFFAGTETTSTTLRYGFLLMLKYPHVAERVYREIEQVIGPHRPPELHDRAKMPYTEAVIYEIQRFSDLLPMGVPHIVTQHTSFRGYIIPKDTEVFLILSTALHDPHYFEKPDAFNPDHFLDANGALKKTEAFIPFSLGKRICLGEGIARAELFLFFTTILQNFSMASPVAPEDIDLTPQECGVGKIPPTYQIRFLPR", "test": "in vitro", "conditions": "microsomes, pH 7.4"}}, "note": "Read-outs that look alike come from different tables or passages of the source.", "data": [{"smiles": "CN(C)CCCN1c2ccccc2Sc2ccc(Cl)cc21", "note": "[Chlorpromazine, chlorpromazine]", "values": [{"measurement": "% MTS absorbance relative to vehicle control", "setting": "[1]", "result": 24.3, "unit": "%"}, {"measurement": "Formazan absorbance, mean", "setting": "[1]", "result": 0.160}]}, {"smiles": "O=C(O)Cc1ccccc1Nc1c(Cl)cccc1Cl", "note": "[Diclofenac]", "values": [{"measurement": "Formation Rate Ratio", "setting": "[2]", "result": 7.7}, {"measurement": "Formation Rate", "setting": "[3]", "result": "0 pmol metabolite/min/mg Supersome protein"}, {"measurement": "Measured Metabolite", "setting": "[3]", "result": 0, "unit": "µM"}, {"measurement": "Formation Rate", "setting": "[3]; human", "result": "845 pmol metabolite/min/mg Supersome protein"}, {"measurement": "Measured Metabolite", "setting": "[3]; human", "result": 1.56, "unit": "µM"}]}, {"smiles": "Cc1ncc2n1-c1ccc(Cl)cc1C(c1ccccc1F)=NC2", "note": "[Midazolam]", "values": [{"measurement": "Formation Rate Ratio", "setting": "[4]; Midazolam (2 μM)", "result": ">>2"}]}, {"smiles": "Nc1ccc(S(=O)(=O)Nc2ccnn2-c2ccccc2)cc1", "note": "[Sulfaphenazole]", "values": [{"measurement": "activity at 3.33 µM", "setting": "[5]", "result": 23.8, "unit": "%"}, {"measurement": "activity at 10 µM", "setting": "[5]", "result": 14.9, "unit": "%"}]}, {"smiles": "C[C@]12CC[C@H]3[C@@H](CCC4=CC(=O)CC[C@@]43C)[C@@H]1CC[C@@H]2O", "note": "[Testosterone]", "values": [{"measurement": "Formation Rate Ratio", "setting": "[4]; Testosterone (50 μM)", "result": ">>2"}]}, {"smiles": "S=P(N1CC1)(N1CC1)N1CC1", "note": "[Thio-TEPA]", "values": [{"measurement": "activity at 3.33 µM", "setting": "[6]", "result": 66.9, "unit": "%"}, {"measurement": "activity at 10 µM", "setting": "[6]", "result": 44.1, "unit": "%"}, {"measurement": "activity at 30 µM", "setting": "[6]", "result": 26.7, "unit": "%"}]}]}
